The record followed here is patent publication US20250051732A1, “KIDNEY-ON-A-CHIP COMPRISING RENAL TUBULE CULTURE PART AND INTERSTITIUM CULTURE PART” (Seoul National University Hospital, priority 2021, published 2025).

Type in all cases: cell-based, human
Assay [1] deals with normal kidney-on-a-chip (renal tubular epithelial cells (HK-2 cells), renal fibroblasts derived from normal kidney tissue, GFP-HUVEC). Briefly: Normal kidney-on-a-chip, TGF-β stimulation: CCK8 and α-SMA immunofluorescence and blood vessels. Conditions: TGF-β 5 ng/ml, 24 hours. How it is done: (§1) Specifically, vascular endothelial cells (GFP-HUVEC) at 2000×10^4/ml and fibrin gel at 10 mg/ml were seeded in the vascular endothelial cell region (yellow region in FIG. 12B, Gel A) of the interstitium culture part of the kidney-on-a-chip manufactured above as 1 in FIG. 12C and cultured at room temperature for 2 to 3 minutes. Next, primary human renal fibroblasts derived from a patient with renal failure at 400×10^4/ml and fibrin gel at 10 mg/ml were seeded in the renal fibroblast region (red region in FIG. 12B, Gel C) of the interstitium culture part of the kidney-on-a-chip manufactured above as 2 in FIG. 12C and cultured at room temperature for 2 to 3 minutes. Afterwards, 5 to 10 μl of the human renal tubular epithelial cell (Human Kidney-2 cell, HK-2 cell) suspension at 300×10^4/ml was seeded in the renal tubule culture part (blue region in FIG. 12B, Gel B) of the kidney-on-a-chip as 3 in FIG. 12C, tilted 90° in the desired direction (upward in this experiment), and cultured at 37° C. for 30 minutes. After culture, each region of the kidney-on-a-chip was filled with 150 μl of the same medium as that in A. of Example 2-2. The renal tubular epithelial cells, vascular endothelial cells, renal fibroblasts and the like were seeded, cultured for 3 days, then treated with TGF-β at 5 ng/ml and TGF-β at 5 ng/ml and a TGF-β inhibitor at 10 μM, respectively, and reacted for 24 hours.
The following immunofluorescence staining was performed to examine whether the kidney-on-a-chip manufactured above normally mimics a living body. Cells in each of the renal tubule culture part and interstitium culture part of the kidney-on-a-chip were fixed with 4% paraformaldehyde fixative (Biosesang, #P2031) at room temperature for 20 minutes, washed with 1×PBS, then treated with 0.2% Triton-X (Sigma, #T9284), and cultured at room temperature for 20 minutes. The cells were then treated with 3% BSA, reacted at room temperature for 40 minutes, and then washed with 1×PBS. […]

Assay [2] deals with kidney injury molecule-1 (KIM-1). Briefly: Renal fibrosis-on-a-chip: KIM-1 ELISA of culture solution. The note with it: three renal fibrosis-on-chips (patients GFP >90, 60 to 90, <60), TGF-β 5 ng/ml alone or with TGF-β inhibitor 10 μM, 24 hours, FIG. 19. How it is done: An experiment was performed in the same manner as in Experimental Example 2, but enzyme-linked immunosorbent assay (ELISA assay) was performed to examine whether kidney injury molecule-1 (KIM-1) could be used as an evaluation index.
Specifically, renal fibroblasts obtained from each of three patients having GFP >90, GFP 60 to 90, and GFP <60 and purchased vascular endothelial cells (GFP-HUVEC) and renal tubular epithelial cells (HK-2 cells) were co-cultured in the vascular endothelial cell medium in the same manner as in Experimental Example 1 to manufacture three types of kidney-on-chips. Next, the medium was collected for each of the control group, TGF-β group, and TGF-β inhibition group of each of the three types of kidney-on-chips, the medium of each group was diluted at an appropriate ratio, and then ELISA analysis was performed according to the instructions of the KIM-1 (human) ELISA kit (Enzo Life Sciences, Inc, #ADI-900-226-0001). Afterwards, the result values for each group were measured at 450 nm using ELISA READER (SPECTRAMAX PLUS384), each measured result value was compared to the value for the control group of each of the three types of kidney-on-chips to comparatively analyze the difference in expression level of KIM-1, and the results are as illustrated in FIG. 19.
(An ELISA detects its analyte on a solid surface through an enzyme-linked reagent.)

Assay [3] deals with vascular endothelial growth factor (VEGF). Briefly: Renal fibrosis-on-a-chip: VEGF real-time PCR. The note with it: two renal fibrosis-on-chips (patients GFP >90, 60 to 90), TGF-β 5 ng/ml alone or with TGF-β inhibitor 10 μM, 24 hours, FIG. 20. How it is done: An experiment was performed in the same manner as in Experimental Example 3-1, but real-time PCR was performed to examine whether the vascular endothelial growth factor (VEGF) can be used as an evaluation index.
Specifically, for each of the control group, TGF-β group, and TGF-β inhibition group of each of the two types of kidney-on-chips manufactured from a patient with GFP >90 and a patient with GFP 60 to 90 in Experimental Example 3-1, RNA was isolated from all of the renal tubular epithelial cells (HK-2 cells), fibroblasts, and vascular endothelial cells (GFP-HUVEC) co-cultured in each kidney-on-a-chip, cDNA was synthesized from this according to a method known in the art and mixed with VEGF primers and SYBER green, and the expression level of VEGF was measured using real-time PCR equipment (REAL TIME PCR SYSTEM, Applied Biosystems ViiA7). After measurement, the result values for each group measured using the equipment were compared to the values for the control group of each of the […] of kidney-on-chips to comparatively analyze the difference in expression level of VEGF, and the results are as illustrated in FIG. 20.

Assay [4] concerns renal tubular epithelial cells (HK-2 cells) in renal fibrosis-on-a-chip. Briefly: Renal fibrosis-on-a-chip: CCK8 and α-SMA immunofluorescence in renal tubule culture part. Conditions: 24 hours. Here is the method: as §1
The following immunofluorescence staining was performed to examine whether the kidney-on-a-chip manufactured above normally mimics a living body. Cells in each of the renal tubule culture part and interstitium culture part of the kidney-on-a-chip were fixed with 4% paraformaldehyde fixative (Biosesang, #P2031) at room temperature for 20 minutes, washed with 1×PBS, then treated with 0.2% Triton-X (Sigma, #T9284), and cultured at room temperature for 20 minutes. The cells were then treated with 3% BSA, reacted at room temperature for 40 minutes, and then washed with 1×PBS. Next, the cells were treated with primary antibodies (α-SMA antibody (diluted at 1:100) for renal fibroblasts and cytokeratin 8 (CCK8) antibody (diluted at 1:200) for renal tubular epithelial cells) diluted with 1% BSA, reacted at room temperature for 2 days, and washed again with 1×PBS. After washing, the cells were treated with secondary antibodies against each marker diluted with 1% BSA at 1:100 and the antibody Hoechst diluted with 1% BSA at 1:250, reacted at room temperature for 3 hours, washed again with 1×PBS, and then photographed using a confocal microscope, and the results are illustrated in FIG. 12D. […]

Assay [5] relates to vascular endothelial cells (GFP-HUVEC) in interstitium culture part. Briefly: Renal fibrosis-on-a-chip: degree of angiogenesis (length and diameter of blood vessels, ImageJ). The note with it: 24 hours. Here is the method:
Through comparative analysis of an organ-on-a-chip mimicking normal kidney tissue and an organ-on-a-chip mimicking renal fibrosis, evaluation indices for screening for renal fibrosis therapeutic agents were deduced in the following manner. At this time, human-derived renal fibroblasts, vascular endothelial cells (GFP-HUVEC), and renal tubular epithelial cells were seeded in the kidney-on-a-chip (FIG. 12A) manufactured in Example 3 in the same manner as in A. of Example 3, and cultured to manufacture a kidney-on-a-chip. However, two types of renal fibroblasts of renal fibroblasts derived from normal kidney tissue (hereinafter referred to as normal kidney-on-a-chip) and renal fibroblasts derived from renal fibrosis kidney tissue (hereinafter referred to as renal fibrosis-on-a-chip) were used as the renal fibroblasts to manufacture two types of kidney-on-chips.
The two types of kidney-on-chips were divided into the control group (control in FIGS. 13A to 13D) in which each of the two types of kidney-on-chips was not treated with TGF-β and the TGF-β group (TGF β in FIGS. 13A to 13D) in which each of the two types of kidney-on-chips was treated with TGF-β unlike Example 3, and immunofluorescence staining was performed in the same manner as in B. of Example 3. At this time, the renal tubular epithelial cells in the renal tubule culture part of each kidney-on-a-chip were treated with CCK8 antibody and α-SMA antibody, respectively, their fluorescence expression was photographed using a confocal microscope (MICROSCOPE CONFOCAL LASER SCANNING ZEISS LSM 710), the mean fluorescence intensity of each image was measured using the analysis program of the confocal microscope, then the result values of CCK8 and α-SMA measured for each group were compared to the values for the control group (control) to comparatively analyze the difference in expression levels, and the results are as illustrated in FIGS. 13A to 13D.
It is more reasonable to compare the kidney-on-a-chip of Example 3 to the pathological tissue of a patient from which kidney cells were obtained rather than comparing the kidney-on-a-chip to a laboratory animal model of renal fibrosis, so the evaluation indices for screening for renal fibrosis therapeutic agents were deduced by manufacturing a kidney-on-a-chip and performing comparative analysis in the same manner as in Experimental Example 1. […] In this experiment, three types of kidney-on-chips were manufactured: the control group (control in FIGS. 15 to 20) not treated with TGF-β, the TGF-β group (TGF β in FIGS. 15 to 20) treated with TGF-β in Experimental Example 1, and a TGF-β inhibition group (TGF β inhibitor in FIGS. 15 to 20) that was treated with TGF-β at 5 ng/ml and a TGF-β inhibitor at 10 μM and reacted for 24 hours.
For the three types of kidney-on-chips of the control group, the TGF-β group, and the TGF-β inhibition group, vascular endothelial cells (GFP-HUVEC) present in the vascular endothelial cell region of the interstitium culture part were photographed using a confocal microscope (MICROSCOPE CONFOCAL LASER SCANNING ZEISS LSM 710). […] The result values measured for each of the control group, TGF-β group, and TGF-β inhibition group were compared to the values for the control group according to each index to comparatively analyze the length and diameter of thin blood vessels and the length and diameter of thick blood vessels, and the results are as illustrated in FIGS. 17 to 18.

Setting [6] is: renal tubular epithelial cell region, vs control, FIG. 13A, 13B.
The mark [7] stands for this setting: renal fibrosis-on-a-chip (Experimental Example 1), renal tubular epithelial cell region, TGF-β 5 ng/ml, vs control, FIG. 13C, 13D.
Setting [8] is: three renal fibrosis-on-chips (patients GFR >90, 60-90, <60), TGF-β 5 ng/ml alone or with TGF-β inhibitor 10 μM, FIG. 15, 16.

Turning to transforming growth factor-β [TGF-β], the “expression level of CCK8” value in assay [1] (setting [6]), in assay [4] (setting [7]) and in assay [4] (setting [8]) was “decreased” in each case. Also, the “expression level of α-SMA” value in assay [1] (setting [6]), in assay [4] (setting [7]) and in assay [4] (setting [8]) was “increased” throughout. Moreover, the “number of thin blood vessels” value is reported as “increased” in assay [1] (vascular endothelial cell region of interstitium culture part) and “increased” in assay [5] (renal fibrosis-on-a-chip (Experimental Example 1), vascular endothelial cell region, TGF-β 5 ng/ml). Further, in assay [2], the “expression level of KIM-1 in the culture solution” value is reported as “increased”. Further, the “expression level of VEGF” value in assay [3] is “increased”. Also, the “total length of thick blood vessels (50 μm or more)” value in assay [5] (three renal fibrosis-on-chips, TGF-β 5 ng/ml alone or with TGF-β inhibitor 10 μM, FIG. 17A) is listed as “decreased”. For the same substance, the “diameter of thick blood vessels” value in assay [5] (three renal fibrosis-on-chips, TGF-β 5 ng/ml alone or with TGF-β inhibitor 10 μM, FIG. 17B) is given as “decreased”. Moreover, the “total length of thin blood vessels (less than 50 μm)” value in assay [5] (three renal fibrosis-on-chips, TGF-β 5 ng/ml alone or with TGF-β inhibitor 10 μM, FIG. 18A) is reported as “increased”. Further, the “diameter of thin blood vessels” value in assay [5] (three renal fibrosis-on-chips, TGF-β 5 ng/ml alone or with TGF-β inhibitor 10 μM, FIG. 18B) is “decreased”.
